{"source": "patent US20230000842A1", "about": "“METHODS OF TREATING CARTILAGE DISORDERS THROUGH INHIBITION OF CLK AND DYRK” (SAMUMED, LLC, priority 2019, published 2023)", "key": {"[1]": {"system": "cartilage of ACLT+pMMx rats", "test": "Surgery-induced OA model (ACLT+pMMx), cartilage analysis", "format": "in vivo, rat", "settings": "cartilage at day 35", "experimental": "(§1) Male Sprague Dawley (SD) rats (250 g±30 g) (Charles River, Wilmington, Mass.) were used for all animal studies. All animals were treatment naïve at the start of the studies. Procedures were performed during the hours of 8 am-5 pm on weekdays in a sterile hood in the vivarium. Rats were housed in individual ventilated cages (≤3 per cage) under the following conditions:\nFor Nanostring analysis and qPCR: At 10 weeks postnatal age, 32 rats were subjected to severing of the anterior cruciate, medial collateral and medial meniscotibial ligaments (ACLT+pMMx). 8 rats (male, 10 weeks old) were untreated controls (Sham). Each rat was anesthetized with an isoflurane/O2 mixture until the flexor withdrawal reflex was abolished. The surgeon wore a face mask, hair net, lab coat and shoe covers, and gloves that were disinfected with betadine or chlorhexidine. Surgery tools were sterilized with an autoclave or bead sterilizer and disinfected between animals using a bead sterilizer. After being shaved and disinfected with betadine or chlorhexidine solution, the right knee joint was exposed through a medial para-patellar approach. The medical collateral ligament (MCL) was transected with surgical scalpels. The patella was dislocated laterally, and the knee was placed in full flexion followed by anterior cruciate ligament (ACL) transection with surgical scalpels. The medial meniscus (MM) was also partially transected. After surgery, the joint surface was washed with sterile saline solution, and the capsule was sutured using Vicryl 4-0 (Ethicon, Edinburgh, UK) absorbable suture. The skin was closed with 9 mm auto clips (Mikron precision INC, Gardena Calif.). Buprenorphine (0.5 mg/kg) was administered immediately after the surgery and daily for one-week post-surgery. All the surgery, rats were allowed to move freely in plastic cages until their necropsies. […] At the indicated timepoints, animals were sacrificed using Carbon dioxide (CO2). Cartilage was isolated, flash frozen in liquid Nitrogen and stored at −80° C. until processing for RNA extraction.\nAt the indicated timepoints, animals were sacrificed using Carbon dioxide (CO2). Cartilage was isolated, flash frozen in liquid Nitrogen and stored at −80° C. until processing for protein extraction."}, "[2]": {"system": "nuclear speckles in hMSCs and chondrocytes", "test": "Nuclear speckles assay (phospho-SC35 immunofluorescence)", "format": "cell-based, human", "settings": "30 nM, 100 nM, 6 hrs, compared to DMSO", "excerpt": "Cells were stained with phospho-SC35 antibody (green) or DAPI nuclear stain (blue).\nAfter approximately 6 hrs, cells were fixed and stained with a phospho-SC35 antibody (Santa Cruz Biotechnology), followed by an Alexa-Fluor 488 secondary antibody (Thermo Fisher) and DAPI (Thermo Fisher). Cells were imaged at 100× magnification using the EVOS FL (Life Technologies, Carlsbad, Calif.)."}, "[3]": {"system": "cartilage of MIA injected rats", "test": "Monosodium iodoacetate (MIA) injection induced OA model, cartilage Western blot", "format": "in vivo, rat", "settings": "4 days after single IA injection", "experimental": "Western blots for phospho-SRSF, SRSF1, AXIN2, phospho-NF-κB, total NFκB, phospho-STAT3, total STAT3, phospho-FOXO1 and total FOXO1 in the cartilage, with β-actin as a loading control.\nas §1\nFor cytokine, MMP, histology (H&E and Safranin O-Fast Green staining), OARSI scores and weight bearing measurements: At 10 weeks postnatal age, 20 rats were subjected to MIA injection (3 mg in 50 μL). Each rat was anesthetized with an isoflurane/O2 mixture until the flexor withdrawal reflex was abolished. The surgeon wore a face mask, hair net, lab coat and shoe covers, and gloves that were disinfected with betadine or chlorhexidine between animals. All tools were sterilized with an autoclave. MIA was dissolved in 0.9% (w/v) saline (3 mg in 50 μL). The solution was filtrated with 0.22 μm membrane before administration. After being shaved and disinfected with betadine or chlorhexidine solution, the right knees were injected intra-articularly with 50 μL of MIA using 0.5-in 26-gauge needle, while the contralateral knees received an IA injection of 0.9% saline. After injection, the injected surface was washed with sterile saline solution. All the rats were allowed to move freely in plastic cages until their necropsies at different time points post-MIA injection.\nOn day 11, animals were sacrificed using Carbon dioxide (CO2). Cartilage was isolated, flash frozen in liquid Nitrogen and stored at −80° C. until processing for protein extraction."}, "[4]": {"settings": "single IA injection 0.1 μg, 0.3 μg, 1 μg one-week post ACLT+pMMx, compared with vehicle"}}, "data": [{"smiles": "CC(C)CC(=O)Nc1cncc(-c2ccc3[nH]nc(-c4nc5c(-c6cccc(F)c6)cncc5[nH]4)c3c2)c1", "note": "[compound 123]", "values": [{"measurement": "number of Wnt pathway genes with decreased expression", "setting": "[1]; ACLT+pMMx rats, Nanostring", "result": 19, "unit": "genes"}, {"measurement": "number of Wnt pathway genes with increased expression", "setting": "[1]; ACLT+pMMx rats, Nanostring", "result": "at least 8 genes"}, {"measurement": "CLK2, DYRK1A, SRSF1, SRSF5, and SRSF6 expression", "setting": "[1]; [4]", "result": "decreased"}, {"measurement": "phospho-SRSF, SRSF1, AXIN2, TCF7, phospho-SIRT1, phospho-FOXO1, and phospho-STAT3 (Western blot)", "setting": "[1]; [4]", "result": "decreased"}, {"measurement": "nuclear speckles (spliceosome modulation)", "setting": "[2]", "result": "enlargement of nuclear speckles"}, {"measurement": "protein levels of total FOXO1", "setting": "[3]", "result": "increased"}, {"measurement": "protein levels of total NF-κB", "setting": "[3]", "result": "decreased"}, {"measurement": "total protein levels of SRSF1 and STAT3", "setting": "[3]", "result": "no changes"}, {"measurement": "phosphorylation of SRSF, NF-κB, STAT3, and FOXO1", "setting": "[3]; compared to vehicle", "result": "decreased"}]}]}
